Measured values: ChEMBL document CHEMBL6153102, “Rational Design, Synthesis, and Biological Evaluation of Novel c-Met Degraders for Lung Cancer Therapy” (J Med Chem, 2025)
The source made the active and inactive calls. The rule behind the calls is not given here.

Columns and labels:
[1] = target: T1, Protein cereblon/Hepatocyte growth factor receptor (Homo sapiens, UniProt P08581+Q96SW2); experiment: PROTAC activity at c-Met/CRBN in human HCT-116 cells assessed as induction of c-Met degradation incubated for 24 hrs by Western blotting analysis; format: cell-based
Target sequence in this assay (P08581 whole entry): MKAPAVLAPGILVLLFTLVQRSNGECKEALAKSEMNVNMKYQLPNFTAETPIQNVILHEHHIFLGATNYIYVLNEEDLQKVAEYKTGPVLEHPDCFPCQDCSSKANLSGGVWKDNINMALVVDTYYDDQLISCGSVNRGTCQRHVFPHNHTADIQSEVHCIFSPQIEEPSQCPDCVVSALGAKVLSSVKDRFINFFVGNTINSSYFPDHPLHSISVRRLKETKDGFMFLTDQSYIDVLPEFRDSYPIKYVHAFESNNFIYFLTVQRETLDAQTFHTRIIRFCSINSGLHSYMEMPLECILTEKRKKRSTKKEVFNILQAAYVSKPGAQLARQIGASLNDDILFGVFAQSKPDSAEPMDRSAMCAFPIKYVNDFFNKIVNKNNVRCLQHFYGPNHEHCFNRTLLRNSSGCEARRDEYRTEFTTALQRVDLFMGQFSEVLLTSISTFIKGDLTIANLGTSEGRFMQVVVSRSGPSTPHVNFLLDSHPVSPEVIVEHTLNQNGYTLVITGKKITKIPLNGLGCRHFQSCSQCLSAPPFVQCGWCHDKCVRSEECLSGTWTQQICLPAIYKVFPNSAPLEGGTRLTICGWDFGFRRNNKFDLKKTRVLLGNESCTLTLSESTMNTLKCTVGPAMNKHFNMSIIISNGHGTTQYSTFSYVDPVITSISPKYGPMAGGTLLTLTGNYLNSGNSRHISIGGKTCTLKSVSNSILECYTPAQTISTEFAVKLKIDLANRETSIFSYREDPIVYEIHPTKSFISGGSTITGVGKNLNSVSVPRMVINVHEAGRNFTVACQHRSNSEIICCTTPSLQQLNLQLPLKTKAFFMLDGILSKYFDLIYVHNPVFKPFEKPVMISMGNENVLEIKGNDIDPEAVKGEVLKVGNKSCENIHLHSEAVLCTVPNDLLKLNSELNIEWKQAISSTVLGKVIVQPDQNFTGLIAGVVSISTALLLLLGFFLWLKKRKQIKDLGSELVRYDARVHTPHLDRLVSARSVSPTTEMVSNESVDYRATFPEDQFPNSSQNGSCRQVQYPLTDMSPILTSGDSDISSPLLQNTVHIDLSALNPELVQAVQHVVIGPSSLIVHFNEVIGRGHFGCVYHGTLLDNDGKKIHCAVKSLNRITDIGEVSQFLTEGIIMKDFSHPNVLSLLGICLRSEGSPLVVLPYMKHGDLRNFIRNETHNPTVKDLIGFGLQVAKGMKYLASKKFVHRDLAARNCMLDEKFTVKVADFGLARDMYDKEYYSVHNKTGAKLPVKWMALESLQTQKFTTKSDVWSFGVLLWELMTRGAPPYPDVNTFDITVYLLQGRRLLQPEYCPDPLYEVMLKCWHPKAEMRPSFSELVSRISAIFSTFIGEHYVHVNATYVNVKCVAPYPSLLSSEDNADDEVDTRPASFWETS
Target sequence in this assay (Q96SW2 whole entry): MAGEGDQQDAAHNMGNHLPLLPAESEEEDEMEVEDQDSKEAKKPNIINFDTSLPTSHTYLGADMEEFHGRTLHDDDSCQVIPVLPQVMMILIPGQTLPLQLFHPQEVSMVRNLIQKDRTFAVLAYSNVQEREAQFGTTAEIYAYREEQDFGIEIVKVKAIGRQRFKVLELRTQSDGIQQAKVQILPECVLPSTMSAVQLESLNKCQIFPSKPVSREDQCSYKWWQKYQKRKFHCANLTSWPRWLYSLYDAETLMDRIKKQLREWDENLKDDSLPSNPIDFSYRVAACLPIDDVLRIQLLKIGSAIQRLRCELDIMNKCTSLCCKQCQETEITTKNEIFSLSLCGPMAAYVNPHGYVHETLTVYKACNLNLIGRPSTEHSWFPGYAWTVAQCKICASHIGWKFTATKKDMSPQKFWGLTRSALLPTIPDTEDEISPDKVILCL

[2] = target: T1, Protein cereblon/Hepatocyte growth factor receptor; experiment: PROTAC activity at c-Met/CRBN in human HCT-116 cells assessed as induction of c-Met degradation at 15.6 nM by Western blotting analysis; format: cell-based; conditions: time 72.0 hrs
Target sequence in this assay (P08581 25-1390 limits assumed): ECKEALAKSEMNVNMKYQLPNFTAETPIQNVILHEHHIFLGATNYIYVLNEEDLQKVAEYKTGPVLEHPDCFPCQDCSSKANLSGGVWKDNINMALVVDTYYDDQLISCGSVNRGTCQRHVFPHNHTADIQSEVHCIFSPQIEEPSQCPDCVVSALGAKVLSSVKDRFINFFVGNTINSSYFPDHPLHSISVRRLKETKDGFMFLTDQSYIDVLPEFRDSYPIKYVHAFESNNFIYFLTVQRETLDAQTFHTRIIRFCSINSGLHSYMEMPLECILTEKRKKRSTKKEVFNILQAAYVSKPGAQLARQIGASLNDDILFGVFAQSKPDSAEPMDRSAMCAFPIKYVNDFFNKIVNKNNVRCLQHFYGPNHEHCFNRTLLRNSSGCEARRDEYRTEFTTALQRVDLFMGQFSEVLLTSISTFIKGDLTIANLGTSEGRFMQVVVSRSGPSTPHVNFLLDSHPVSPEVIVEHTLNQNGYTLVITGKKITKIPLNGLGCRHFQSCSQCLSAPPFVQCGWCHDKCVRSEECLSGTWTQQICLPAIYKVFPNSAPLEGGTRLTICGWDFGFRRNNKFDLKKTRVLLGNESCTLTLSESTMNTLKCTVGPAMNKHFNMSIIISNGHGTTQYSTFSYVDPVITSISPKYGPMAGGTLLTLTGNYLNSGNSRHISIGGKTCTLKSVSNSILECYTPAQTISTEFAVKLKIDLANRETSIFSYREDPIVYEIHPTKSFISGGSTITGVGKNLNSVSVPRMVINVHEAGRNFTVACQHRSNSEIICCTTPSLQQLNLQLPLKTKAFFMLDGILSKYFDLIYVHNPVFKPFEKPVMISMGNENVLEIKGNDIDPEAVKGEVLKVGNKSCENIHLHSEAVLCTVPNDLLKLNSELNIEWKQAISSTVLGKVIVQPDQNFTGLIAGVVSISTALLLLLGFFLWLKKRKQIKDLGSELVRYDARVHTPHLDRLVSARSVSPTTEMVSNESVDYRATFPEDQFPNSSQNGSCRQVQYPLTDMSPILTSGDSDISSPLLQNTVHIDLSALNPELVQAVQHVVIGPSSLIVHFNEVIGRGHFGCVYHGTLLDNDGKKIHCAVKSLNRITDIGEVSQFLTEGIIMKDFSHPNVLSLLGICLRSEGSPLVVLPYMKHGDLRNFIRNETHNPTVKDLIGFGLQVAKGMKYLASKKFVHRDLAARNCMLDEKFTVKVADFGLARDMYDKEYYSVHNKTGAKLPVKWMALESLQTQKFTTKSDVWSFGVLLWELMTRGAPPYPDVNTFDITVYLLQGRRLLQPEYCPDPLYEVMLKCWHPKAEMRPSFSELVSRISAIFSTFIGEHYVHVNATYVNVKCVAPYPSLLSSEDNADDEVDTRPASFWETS
Target sequence in this assay (Q96SW2 whole entry partner): as the sequence (Q96SW2 whole entry) above

EBC-1 [3] = experiment: Induction of apoptosis in human EBC-1 cells assessed as early apoptotic cells at 15 nM incubated for 24 hrs by Annexin V/FITC staining based flow cytometry analysis (reference value: 2.11 %); format: functional
Hs746T = experiment: Antiproliferative activity against human Hs746T cells assessed as cell viability incubated for 72 hrs by MTT assay; format: functional, cell-based
EBC-1 [4] = experiment: Induction of apoptosis in human EBC-1 cells assessed as late apoptotic cells at 15 nM incubated for 24 hrs by Annexin V/FITC staining based flow cytometry analysis (reference value: 1.65 %); format: functional
[5] = Volume of distribution at steady state in Sprague-Dawley rat at 2 mg/kg, iv measured upto 24 hrs by LC-MS/MS analysis; format: ADME, organism-based; conditions: in vivo
[6] = Toxicity in BALB/c nude mouse assessed as liver damage at 10 to 20 mg/kg, ip administered for 7 days by H and E staining based analysis; format: organism-based; conditions: in vivo, 168 h, dose 10-20 mg/kg, time 7 day
[7] = Half life in Sprague-Dawley rat at 2 mg/kg, iv measured upto 24 hrs by LC-MS/MS analysis; format: ADME, organism-based; conditions: in vivo
[8] = target: T1, Protein cereblon/Hepatocyte growth factor receptor; experiment: PROTAC activity at c-Met/CRBN in human HCT-116 cells assessed as induction of c-Met degradation at 100 nM incubated for 24 hrs by Western blotting analysis relative to control; format: cell-based
Target sequence in this assay (P08581 25-1390 limits assumed): as the sequence (P08581 25-1390 limits assumed) above
Target sequence in this assay (Q96SW2 whole entry partner): as the sequence (Q96SW2 whole entry) above

[9] = target: T1, Protein cereblon/Hepatocyte growth factor receptor; experiment: PROTAC activity at c-Met/CRBN in human EBC-1 cells assessed as reduction in c-Met level at 3.9 to 125 nM incubated for 24 hrs in presence of MG132 by Western blot analysis; format: cell-based; conditions: dose 3.9-125 nM
Target sequence in this assay (P08581 25-1390 limits assumed): as the sequence (P08581 25-1390 limits assumed) above
Target sequence in this assay (Q96SW2 whole entry partner): as the sequence (Q96SW2 whole entry) above

HCT-116 = experiment: Antiproliferative activity against human HCT-116 cells assessed as cell viability incubated for 72 hrs by MTT assay; format: functional, cell-based; conditions: HCT-116, 72 h
EBC-1 [10] = experiment: Antiproliferative activity against human EBC-1 cells assessed as cell viability incubated for 72 hrs by MTT assay; format: functional, cell-based; conditions: EBC-1, 72 h
MKN-45 = experiment: Antiproliferative activity against human MKN-45 cells assessed as cell viability incubated for 72 hrs by MTT assay; format: functional, cell-based; conditions: MKN-45, 72 h
[11] = Tmax in Sprague-Dawley rat at 5 mg/kg, ip measured upto 24 hrs by LC-MS/MS analysis; format: ADME, organism-based; conditions: in vivo
EBC-1 [12] = experiment: Antitumor activity against human EBC-1 cells xenografted BALB/c nude mouse assessed as reduction in tumor volume at 20 mg/kg, ip administered for 7 days; format: functional; design: scale not given: the % may be the effect or the level left; conditions: time 7 day
[13] = target: T1, Protein cereblon/Hepatocyte growth factor receptor; experiment: PROTAC activity at c-Met/CRBN in human EBC-1 cells assessed as reduction in HELLS level at 15.6 nM incubated for 24 hrs by proteomics analysis; format: cell-based
Target sequence in this assay (P08581 25-1390 limits assumed): as the sequence (P08581 25-1390 limits assumed) above
Target sequence in this assay (Q96SW2 whole entry partner): as the sequence (Q96SW2 whole entry) above

[14] = target: T1, Protein cereblon/Hepatocyte growth factor receptor; experiment: PROTAC activity at c-Met/CRBN in human HCT-116 cells assessed as reduction in c-Met level at 3.9 to 125 nM incubated for 24 hrs in presence of tepotinib by Western blot analysis; format: cell-based; conditions: dose 3.9-125 nM
Target sequence in this assay (P08581 25-1390 limits assumed): as the sequence (P08581 25-1390 limits assumed) above
Target sequence in this assay (Q96SW2 whole entry partner): as the sequence (Q96SW2 whole entry) above

EBC-1 [15] = experiment: Induction of apoptosis in human EBC-1 cells assessed as necrotic cells at 5 nM incubated for 24 hrs by Annexin V/FITC staining based flow cytometry analysis (reference value: 0.35 %); format: functional
[16] = target: T1, Protein cereblon/Hepatocyte growth factor receptor; experiment: PROTAC activity at c-Met/CRBN in human A549 cells assessed as reduction in c-Met level incubated for 24 hrs by Western blotting analysis; format: cell-based
Target sequence in this assay (P08581 whole entry): as the sequence (P08581 whole entry) above
Target sequence in this assay (Q96SW2 whole entry): as the sequence (Q96SW2 whole entry) above

[17] = target: T1, Protein cereblon/Hepatocyte growth factor receptor; experiment: PROTAC activity at c-Met/CRBN in human EBC-1 cells assessed as reduction in FOSL1 level at 15.6 nM incubated for 24 hrs by proteomics analysis; format: cell-based
Target sequence in this assay (P08581 25-1390 limits assumed): as the sequence (P08581 25-1390 limits assumed) above
Target sequence in this assay (Q96SW2 whole entry partner): as the sequence (Q96SW2 whole entry) above

EBC-1 [18] = experiment: Induction of apoptosis in human EBC-1 cells assessed as viable cells at 15 nM incubated for 24 hrs by Annexin V/FITC staining based flow cytometry analysis (reference value: 95.9%); format: functional; conditions: read-out: Activity
[19] = Toxicity in BALB/c nude mouse assessed as kidney damage at 10 to 20 mg/kg, ip administered for 7 days by H and E staining based analysis; format: organism-based; conditions: in vivo, 168 h, dose 10-20 mg/kg, time 7 day
EBC-1 [20] = experiment: Induction of apoptosis in human EBC-1 cells assessed as early apoptotic cells at 50 nM incubated for 24 hrs by Annexin V/FITC staining based flow cytometry analysis (reference value: 2.11 %); format: functional
[21] = target: T1, Protein cereblon/Hepatocyte growth factor receptor; experiment: PROTAC activity at c-Met/CRBN in human A549 cells assessed as reduction in c-Met level at 3.9 to 125 nM incubated for 24 hrs in presence of tepotinib by Western blot analysis; format: cell-based; conditions: dose 3.9-125 nM
[22] = Tmax in Sprague-Dawley rat at 2 mg/kg, iv measured upto 24 hrs by LC-MS/MS analysis; format: ADME, organism-based; conditions: in vivo
[23] = Toxicity in BALB/c nude mouse assessed as heart damage at 10 to 20 mg/kg, ip administered for 7 days by H and E staining based analysis; format: organism-based; conditions: in vivo, 168 h, dose 10-20 mg/kg, time 7 day
[24] = target: T1, Protein cereblon/Hepatocyte growth factor receptor; experiment: PROTAC activity at c-Met/CRBN in human EBC-1 cells assessed as induction of c-Met degradation at 100 nM incubated for 24 hrs by Western blotting analysis relative to control; format: cell-based
EBC-1 [25] = experiment: Induction of apoptosis in human EBC-1 cells assessed as late apoptotic cells at 5 nM incubated for 24 hrs by Annexin V/FITC staining based flow cytometry analysis (reference value: 1.65 %); format: functional
[26] = Apparent volume of distribution in Sprague-Dawley rat at 2 mg/kg, iv measured upto 24 hrs by LC-MS/MS analysis; format: ADME, organism-based; conditions: in vivo
EBC-1 [27] = experiment: Induction of apoptosis in human EBC-1 cells assessed as late apoptotic cells at 50 nM incubated for 24 hrs by Annexin V/FITC staining based flow cytometry analysis (reference value: 1.65 %); format: functional
[28] = Metabolic stability in rat liver microsome assessed as half life; format: ADME; conditions: liver microsomes
[29] = Stability in human plasma assessed as half life; format: ADME, cell-free
[30] = Bioavailability in Sprague-Dawley rat at 5 mg/kg, ip measured upto 24 hrs by LC-MS/MS analysis; format: ADME, organism-based; conditions: in vivo
[31] = Metabolic stability in human liver microsome assessed as half life; format: ADME; conditions: liver microsomes
EBC-1 [32] = experiment: Antitumor activity against human EBC-1 cells xenografted BALB/c nude mouse assessed as reduction in Ki67 expression at 10 to 20 mg/kg, ip administered for 7 days by immunohistochemical analysis; format: functional, organism-based; conditions: dose 10-20 mg/kg, time 7.0 day
[33] = target: T1, Protein cereblon/Hepatocyte growth factor receptor; experiment: PROTAC activity at c-Met/CRBN in human EBC-1 cells assessed as reduction in c-Met level at 3.9 to 125 nM incubated for 24 hrs in presence of tepotinib by Western blot analysis; format: cell-based; conditions: dose 3.9-125 nM
[34] = target: T1, Protein cereblon/Hepatocyte growth factor receptor; experiment: PROTAC activity at c-Met/CRBN in human EBC-1 cells assessed as effect on IKZF2 level at 15.6 nM incubated for 24 hrs by proteomics analysis; format: cell-based

For COc1ccc(C(=O)N2CCC3(CCN(C(=O)CN4CCC(COc5cnc(-c6cccc(Cn7nc(-c8cccc(C#N)c8)ccc7=O)c6)nc5)CC4)CC3)CC2)cc1N1CCC(=O)NC1=O, the DC50 [1] was under 15.6 nM, the Activity [2] was “Time-dependent-effect” and the Activity (EBC-1 [3]) was 30.8%. The IC50 (Hs746T) was 8 nM, the Activity (EBC-1 [4]) was 3.66% and the Vdss [5] was 36.26 L/kg. For the same compound, the Activity [6] was “Non-toxic”, the t1/2 [7] was 6.9 h and the Activity [8] was “inactive”. For the same compound, the Activity [9] was “Active”, the IC50 (HCT-116) was 6190 nM and the IC50 (EBC-1 [10]) was 4 nM. It also gave an IC50 (MKN-45) of 10 nM, a Tmax [11] of 2 h and an Activity (EBC-1 [12]) of 86.14%. For the same compound, the Activity [13] was “Active”, the Activity [14] was “inactive” and the Activity (EBC-1 [15]) was 0.42%. The DC50 [16] was 41.8 nM, the Activity [17] was “Active” and the viability at 0.015 µM (EBC-1 [18]) was 65%. For the same compound, the Activity [19] was “Non-toxic”, the Activity (EBC-1 [20]) was 33.9% and the Activity [21] was “inactive”. The Tmax [22] was 5.04 min, the Activity [23] was “Non-toxic” and the Activity [24] was 90.3%. The Activity (EBC-1 [25]) was 3.43%, the Vz [26] was 13.13 L/kg and the Activity (EBC-1 [27]) was 3.47%. For the same compound, the half-life [28] was 2.22 h, the half-life [29] was over 2 h and the bioavailability [30] was 49.2%. The half-life [31] was 0.362 h, the Activity (EBC-1 [32]) was “inactive” and the Activity [33] was “inactive”. The Activity [34] was “No effect”.
